Source: publication PMC6979384, “Characterization of the plant homeodomain (PHD) reader family for their histone tail interactions” (Epigenetics & Chromatin, 2020)

Legend:
Test in all cases: Histone peptide microarray
Type in all cases: binding, human
Settings in all cases: sheet "Array Heatmap"
AIRE (PP) = test system: AIRE (PP)
Outline: (§1)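 Purified PHD finger domains fused to GST are screened against 293 synthetic histone peptides bearing one or several post-translational modifications. The protein is used at 0.5 μM, and the signal from four replicate arrays is averaged, with standard deviation given.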

BAZ2B = test system: BAZ2B
Outline: as §1

BPTF (PB) = test system: BPTF (PB)
Outline: as §1

CHD4 (PPCC) = test system: CHD4 (PPCC)
Outline: as §1

CHD5 (PCC) = test system: CHD5 (PCC)
Outline: as §1

CHD5 (PPCC) = test system: CHD5 (PPCC)
Outline: as §1

DIDO1 = test system: DIDO1
Outline: as §1

DPF2 (PPC2W2) = test system: DPF2 (PPC2W2)
Outline: as §1

ING1 = test system: ING1
Outline: as §1

ING2 = test system: ING2
Outline: as §1

ING3 = test system: ING3
Outline: as §1

ING4 = test system: ING4
Outline: as §1

ING5 = test system: ING5
Outline: as §1

KDM4C (TTP) = test system: KDM4C (TTP)
Outline: as §1

KDM5A (1) = test system: KDM5A (1)
Outline: as §1

KDM5A (3) = test system: KDM5A (3)
Outline: as §1

KDM5B (1) = test system: KDM5B (1)
Outline: as §1

KDM5B (3) = test system: KDM5B (3)
Outline: as §1

KDM7A = test system: KDM7A
Outline: as §1

MLL5 = test system: MLL5
Outline: as §1

MORC3 (CW) = test system: MORC3 (CW)
Outline: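 GST-tagged PHD finger readers were expressed, purified and applied at 0.5 μM to a microarray of 293 synthetic histone peptides carrying single or combinatorial PTMs, using an optimized protocol. Binding signals are averages with standard deviation from 4 replicates.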

PHF13 = test system: PHF13
Outline: as §1

PHF21A = test system: PHF21A
Outline: as §1

PHF23 = test system: PHF23
Outline: as §1

PHF2 = test system: PHF2
Outline: as §1

PHF8 = test system: PHF8
Outline: as §1

PHRF1 (RP) = test system: PHRF1 (RP)
Outline: as §1

RAG2 = test system: RAG2
Outline: as §1

SP140L = test system: SP140L
Outline: as §1

TAF3 = test system: TAF3
Outline: as §1

TRIM66 (PB) = test system: TRIM66 (PB)
Outline: as §1

[1] = GST-tagged reader, histone peptide array, total n = 4
[2] = GST-tagged AIRE (PP), arrays performed twice, total replicate number n = 4
[3] = GST-tagged BAZ2B, arrays performed twice, total replicate number n = 4
[4] = GST-tagged BPTF (PB), arrays performed twice, total replicate number n = 4
[5] = GST-tagged CHD4 (PPCC), arrays performed twice, total replicate number n = 4
[6] = GST-tagged CHD5 (PCC), arrays performed twice, total replicate number n = 4
[7] = GST-tagged CHD5 (PPCC), arrays performed twice, total replicate number n = 4
[8] = GST-tagged DIDO1, arrays performed twice, total replicate number n = 4
[9] = GST-tagged DPF2 (PPC2W2), arrays performed twice, total replicate number n = 4
[10] = GST-tagged ING1, arrays performed twice, total replicate number n = 4
[11] = GST-tagged ING2, arrays performed twice, total replicate number n = 4
[12] = GST-tagged ING3, arrays performed twice, total replicate number n = 4
[13] = GST-tagged ING4, arrays performed twice, total replicate number n = 4
[14] = GST-tagged ING5, arrays performed twice, total replicate number n = 4
[15] = GST-tagged KDM4C (TTP), arrays performed twice, total replicate number n = 4
[16] = GST-tagged KDM5A (1), arrays performed twice, total replicate number n = 4
[17] = GST-tagged KDM5A (3), arrays performed twice, total replicate number n = 4
[18] = GST-tagged KDM5B (1), arrays performed twice, total replicate number n = 4
[19] = GST-tagged KDM5B (3), arrays performed twice, total replicate number n = 4
[20] = GST-tagged KDM7A, arrays performed twice, total replicate number n = 4
[21] = GST-tagged MLL5, arrays performed twice, total replicate number n = 4
[22] = GST-tagged MORC3 (CW), arrays performed twice, total replicate number n = 4
[23] = GST-tagged PHF13, arrays performed twice, total replicate number n = 4
[24] = GST-tagged PHF21A, arrays performed twice, total replicate number n = 4
[25] = GST-tagged PHF23, arrays performed twice, total replicate number n = 4
[26] = GST-tagged PHF2, arrays performed twice, total replicate number n = 4
[27] = GST-tagged PHF8, arrays performed twice, total replicate number n = 4
[28] = GST-tagged PHRF1 (RP), arrays performed twice, total replicate number n = 4
[29] = GST-tagged RAG2, arrays performed twice, total replicate number n = 4
[30] = GST-tagged SP140L, arrays performed twice, total replicate number n = 4
[31] = GST-tagged TAF3, arrays performed twice, total replicate number n = 4
[32] = GST-tagged TRIM66 (PB), arrays performed twice, total replicate number n = 4

For “H3 (74-84): H3 74-84 (IAQDFKTDLRF; UniProt P68431 75-85, looked up, fragment)”, the “Array Heatmap signal, AIRE (PP)” value (AIRE (PP); [1]) was 0.5836, the “Array Heatmap signal, BAZ2B” value (BAZ2B; [1]) was 0.5314 and the “Array Heatmap signal, BPTF (PB)” value (BPTF (PB); [1]) was 0.3631. For the same substance, the “Array Heatmap signal, CHD4 (PPCC)” value (CHD4 (PPCC); [1]) was 0.6103, the “Array Heatmap signal, CHD5 (PCC)” value (CHD5 (PCC); [1]) was 0.8536 and the “Array Heatmap signal, CHD5 (PPCC)” value (CHD5 (PPCC); [1]) was 0.6043. For the same substance, the “Array Heatmap signal, DIDO1” value (DIDO1; [1]) was 0.6796, the “Array Heatmap signal, DPF2 (PPC2W2)” value (DPF2 (PPC2W2); [1]) was 0.6874 and the “Array Heatmap signal, ING1” value (ING1; [1]) was 0.527. For the same substance, the “Array Heatmap signal, ING2” value (ING2; [1]) was 0.5988, the “Array Heatmap signal, ING3” value (ING3; [1]) was 0.4892 and the “Array Heatmap signal, ING4” value (ING4; [1]) was 0.5059. For the same substance, the “Array Heatmap signal, ING5” value (ING5; [1]) was 0.3977, the “Array Heatmap signal, KDM4C (TTP)” value (KDM4C (TTP); [1]) was 0.5485 and the “Array Heatmap signal, KDM5A (1)” value (KDM5A (1); [1]) was 0.5057. For the same substance, the “Array Heatmap signal, KDM5A (3)” value (KDM5A (3); [1]) was 0.4265, the “Array Heatmap signal, KDM5B (1)” value (KDM5B (1); [1]) was 0.6254 and the “Array Heatmap signal, KDM5B (3)” value (KDM5B (3); [1]) was 0.5142. For the same substance, the “Array Heatmap signal, KDM7A” value (KDM7A; [1]) was 0.4511, the “Array Heatmap signal, MLL5” value (MLL5; [1]) was 0.5674 and the “Array Heatmap signal, MORC3 (CW)” value (MORC3 (CW); [1]) was 0.3965. For the same substance, the “Array Heatmap signal, PHF13” value (PHF13; [1]) was 0.6585, the “Array Heatmap signal, PHF21A” value (PHF21A; [1]) was 0.5055 and the “Array Heatmap signal, PHF23” value (PHF23; [1]) was 0.5211. The “Array Heatmap signal, PHF2” value (PHF2; [1]) was 0.4839, the “Array Heatmap signal, PHF8” value (PHF8; [1]) was 0.3649 and the “Array Heatmap signal, PHRF1 (RP)” value (PHRF1 (RP); [1]) was 0.4358. For the same substance, the “Array Heatmap signal, RAG2” value (RAG2; [1]) was 0.2597, the “Array Heatmap signal, SP140L” value (SP140L; [1]) was 0.3639 and the “Array Heatmap signal, TAF3” value (TAF3; [1]) was 0.2746. The “Array Heatmap signal, TRIM66 (PB)” value (TRIM66 (PB); [1]) was 0.6388.

With H3.3 15-34: H3.3 15-34 the “Array Heatmap signal, AIRE (PP)” value (AIRE (PP); [2]) was 0.5768, the “Array Heatmap signal, BAZ2B” value (BAZ2B; [3]) was 0.5105 and the “Array Heatmap signal, BPTF (PB)” value (BPTF (PB); [4]) was 0.3589. The “Array Heatmap signal, CHD4 (PPCC)” value (CHD4 (PPCC); [5]) was 0.5508, the “Array Heatmap signal, CHD5 (PCC)” value (CHD5 (PCC); [6]) was 0.807 and the “Array Heatmap signal, CHD5 (PPCC)” value (CHD5 (PPCC); [7]) was 0.5888. For the same substance, the “Array Heatmap signal, DIDO1” value (DIDO1; [8]) was 0.6133, the “Array Heatmap signal, DPF2 (PPC2W2)” value (DPF2 (PPC2W2); [9]) was 0.6732 and the “Array Heatmap signal, ING1” value (ING1; [10]) was 0.5055. For the same substance, the “Array Heatmap signal, ING2” value (ING2; [11]) was 0.6004, the “Array Heatmap signal, ING3” value (ING3; [12]) was 0.4684 and the “Array Heatmap signal, ING4” value (ING4; [13]) was 0.4948. For the same substance, the “Array Heatmap signal, ING5” value (ING5; [14]) was 0.3926, the “Array Heatmap signal, KDM4C (TTP)” value (KDM4C (TTP); [15]) was 0.5726 and the “Array Heatmap signal, KDM5A (1)” value (KDM5A (1); [16]) was 0.5272. For the same substance, the “Array Heatmap signal, KDM5A (3)” value (KDM5A (3); [17]) was 0.4324, the “Array Heatmap signal, KDM5B (1)” value (KDM5B (1); [18]) was 0.7186 and the “Array Heatmap signal, KDM5B (3)” value (KDM5B (3); [19]) was 0.5078. The “Array Heatmap signal, KDM7A” value (KDM7A; [20]) was 0.5038, the “Array Heatmap signal, MLL5” value (MLL5; [21]) was 0.5484 and the “Array Heatmap signal, MORC3 (CW)” value (MORC3 (CW); [22]) was 0.367. The “Array Heatmap signal, PHF13” value (PHF13; [23]) was 0.6359, the “Array Heatmap signal, PHF21A” value (PHF21A; [24]) was 0.4988 and the “Array Heatmap signal, PHF23” value (PHF23; [25]) was 0.5121. For the same substance, the “Array Heatmap signal, PHF2” value (PHF2; [26]) was 0.4208, the “Array Heatmap signal, PHF8” value (PHF8; [27]) was 0.386 and the “Array Heatmap signal, PHRF1 (RP)” value (PHRF1 (RP); [28]) was 0.4107. The “Array Heatmap signal, RAG2” value (RAG2; [29]) was 0.2498, the “Array Heatmap signal, SP140L” value (SP140L; [30]) was 0.3703 and the “Array Heatmap signal, TAF3” value (TAF3; [31]) was 0.298. For the same substance, the “Array Heatmap signal, TRIM66 (PB)” value (TRIM66 (PB); [32]) was 0.563.

In the case of H3.3 30-49: H3.3 30-49, the “Array Heatmap signal, AIRE (PP)” value (AIRE (PP); [2]) is reported as 0.4614, the “Array Heatmap signal, BAZ2B” value (BAZ2B; [3]) is reported as 0.4498 and the “Array Heatmap signal, BPTF (PB)” value (BPTF (PB); [4]) is reported as 0.3385. For the same substance, the “Array Heatmap signal, CHD4 (PPCC)” value (CHD4 (PPCC); [5]) was 0.5572, the “Array Heatmap signal, CHD5 (PCC)” value (CHD5 (PCC); [6]) was 0.7506 and the “Array Heatmap signal, CHD5 (PPCC)” value (CHD5 (PPCC); [7]) was 0.5477. The “Array Heatmap signal, DIDO1” value (DIDO1; [8]) was 0.5964, the “Array Heatmap signal, DPF2 (PPC2W2)” value (DPF2 (PPC2W2); [9]) was 0.6135 and the “Array Heatmap signal, ING1” value (ING1; [10]) was 0.4817. The “Array Heatmap signal, ING2” value (ING2; [11]) was 0.5868, the “Array Heatmap signal, ING3” value (ING3; [12]) was 0.4515 and the “Array Heatmap signal, ING4” value (ING4; [13]) was 0.4627. For the same substance, the “Array Heatmap signal, ING5” value (ING5; [14]) was 0.3551, the “Array Heatmap signal, KDM4C (TTP)” value (KDM4C (TTP); [15]) was 0.523 and the “Array Heatmap signal, KDM5A (1)” value (KDM5A (1); [16]) was 0.4724. For the same substance, the “Array Heatmap signal, KDM5A (3)” value (KDM5A (3); [17]) was 0.3975, the “Array Heatmap signal, KDM5B (1)” value (KDM5B (1); [18]) was 0.6846 and the “Array Heatmap signal, KDM5B (3)” value (KDM5B (3); [19]) was 0.4643. The “Array Heatmap signal, KDM7A” value (KDM7A; [20]) was 0.4094, the “Array Heatmap signal, MLL5” value (MLL5; [21]) was 0.5124 and the “Array Heatmap signal, MORC3 (CW)” value (MORC3 (CW); [22]) was 0.3401. The “Array Heatmap signal, PHF13” value (PHF13; [23]) was 0.586, the “Array Heatmap signal, PHF21A” value (PHF21A; [24]) was 0.447 and the “Array Heatmap signal, PHF23” value (PHF23; [25]) was 0.5238. For the same substance, the “Array Heatmap signal, PHF2” value (PHF2; [26]) was 0.404, the “Array Heatmap signal, PHF8” value (PHF8; [27]) was 0.3443 and the “Array Heatmap signal, PHRF1 (RP)” value (PHRF1 (RP); [28]) was 0.4134. For the same substance, the “Array Heatmap signal, RAG2” value (RAG2; [29]) was 0.2343, the “Array Heatmap signal, SP140L” value (SP140L; [30]) was 0.3561 and the “Array Heatmap signal, TAF3” value (TAF3; [31]) was 0.2689. The “Array Heatmap signal, TRIM66 (PB)” value (TRIM66 (PB); [32]) was 0.5248.
